“And” between values parts separate entries of the source, which are not always exact repeats. Identical values can stand only once. “Also recorded” adds a separate entry of the source. Like-named read-outs stand apart in the source and are kept apart here.
Experiments:
[1] = tested on: juvenile schistosomes (21 days p.i.); assay: XTT juvenile viability assay; type: cell-based, Schistosoma mansoni; settings: 100 μM, 48 h
[2] = tested on: adult schistosomes (male and female worms); assay: Adult worm ex vivo high-content image-based motility assay; type: cell-based, Schistosoma mansoni
Experimental: Adult schistosomes’ motility was determined using a high-content assay previously developed by our group, , with images analyzed in CellProfiler software. More details are provided in the Supporting Information.
(§1) Adult worm ex-vivo high-content assay
(§2) “Area” and “False Negative Rate” from the MeasureObjectSizeShape and MeasureObjectOverlap modules, respectively. These measurements were then modeled by a multilevel generalized linear statistical model. The effects of the experimental treatments on […]
(§3) The half-maximal inhibitory
(§4) Windows (GraphPad Software, Boston, MA, USA; www.graphpad.com). […]
with DMSO as a negative control.

in vitro = settings: human, HepG2 cytotoxicity (CC50)
Experimental: (§5) Next, we conducted a more detailed investigation by performing dose–response assays with each compound on HepG2 hepatic epithelial cells, as the liver is one of the major organs affected in intestinal schistosomiasis.
(§6) More details are provided in the Supporting Information.
as §1
(§7) Male and female worms were placed in 96-well microplates (one worm per well) and incubated […]
(§8) to 72 hours. Brightfield timelapse images (100 images, 0.3-second intervals) were captured from each well before, immediately after, and every 24 hours following compound addition using an ImageXpress Micro Confocal High Content System equipped with a 2x objective. Image analysis was performed through a custom pipeline in CellProfiler software (v. 4.2.1, Windows OS).57 During analysis, the area of each worm and its displacement between consecutive image captures (i.e., images taken at successive time points) were measured using the parameters “Area” and “False Negative Rate” from the MeasureObjectSizeShape and MeasureObjectOverlap modules, respectively. These measurements were then modeled by a multilevel generalized linear statistical model. The effects of the experimental treatments on parasite motility were estimated with the integrated nested Laplace approximation (INLA) method, available in the INLA package of R (https://www.r-inla.org). The half-maximal inhibitory concentration (EC50) of each compound was calculated based on the worms' estimated motility using the […] 4-parameter logistic equation in GraphPad Prism version 9.0.0 for Windows (GraphPad Software, Boston, MA, USA; www.graphpad.com). […]
(§9) either at a fixed concentration (10 µM) or across a range of concentrations (0.0001–300 µM), or with DMSO as a negative control. Two hours before the end of the experiment (t0), a resazurin solution (final concentration: 0.01 mg/mL) was added to each well and the first fluorescence […]
(§10) reader. At the end of the incubation (t1), a second reading was performed. The fluorescence attributed solely to resorufin was measured by subtracting the fluorescence readings at t0 from those at t1. The results were expressed as percentual cell viability considering negative control

[3] = tested on: HepG2 hepatic epithelial cells; assay: in vitro; settings: for Selectivity Index (CC50/EC50), Male: HepG2 CC50 / male worm motility EC50, 48 h
Experimental: as §5, §6, §1, §7, §8, §9, §10

Sm.TRPMPZQ (wild-type) = Sm.TRPMPZQ (wild-type) (Schistosoma mansoni, UniProt A0A5K4F0X5); assay: Ca2+ reporter (FLIPR) activation assay, wild-type Sm.TRPMPZQ in HEK293 cells; type: cell-based
Sm.TRPMPZQ (wild-type), sequence (A0A5K4F0X5 entry or part of it): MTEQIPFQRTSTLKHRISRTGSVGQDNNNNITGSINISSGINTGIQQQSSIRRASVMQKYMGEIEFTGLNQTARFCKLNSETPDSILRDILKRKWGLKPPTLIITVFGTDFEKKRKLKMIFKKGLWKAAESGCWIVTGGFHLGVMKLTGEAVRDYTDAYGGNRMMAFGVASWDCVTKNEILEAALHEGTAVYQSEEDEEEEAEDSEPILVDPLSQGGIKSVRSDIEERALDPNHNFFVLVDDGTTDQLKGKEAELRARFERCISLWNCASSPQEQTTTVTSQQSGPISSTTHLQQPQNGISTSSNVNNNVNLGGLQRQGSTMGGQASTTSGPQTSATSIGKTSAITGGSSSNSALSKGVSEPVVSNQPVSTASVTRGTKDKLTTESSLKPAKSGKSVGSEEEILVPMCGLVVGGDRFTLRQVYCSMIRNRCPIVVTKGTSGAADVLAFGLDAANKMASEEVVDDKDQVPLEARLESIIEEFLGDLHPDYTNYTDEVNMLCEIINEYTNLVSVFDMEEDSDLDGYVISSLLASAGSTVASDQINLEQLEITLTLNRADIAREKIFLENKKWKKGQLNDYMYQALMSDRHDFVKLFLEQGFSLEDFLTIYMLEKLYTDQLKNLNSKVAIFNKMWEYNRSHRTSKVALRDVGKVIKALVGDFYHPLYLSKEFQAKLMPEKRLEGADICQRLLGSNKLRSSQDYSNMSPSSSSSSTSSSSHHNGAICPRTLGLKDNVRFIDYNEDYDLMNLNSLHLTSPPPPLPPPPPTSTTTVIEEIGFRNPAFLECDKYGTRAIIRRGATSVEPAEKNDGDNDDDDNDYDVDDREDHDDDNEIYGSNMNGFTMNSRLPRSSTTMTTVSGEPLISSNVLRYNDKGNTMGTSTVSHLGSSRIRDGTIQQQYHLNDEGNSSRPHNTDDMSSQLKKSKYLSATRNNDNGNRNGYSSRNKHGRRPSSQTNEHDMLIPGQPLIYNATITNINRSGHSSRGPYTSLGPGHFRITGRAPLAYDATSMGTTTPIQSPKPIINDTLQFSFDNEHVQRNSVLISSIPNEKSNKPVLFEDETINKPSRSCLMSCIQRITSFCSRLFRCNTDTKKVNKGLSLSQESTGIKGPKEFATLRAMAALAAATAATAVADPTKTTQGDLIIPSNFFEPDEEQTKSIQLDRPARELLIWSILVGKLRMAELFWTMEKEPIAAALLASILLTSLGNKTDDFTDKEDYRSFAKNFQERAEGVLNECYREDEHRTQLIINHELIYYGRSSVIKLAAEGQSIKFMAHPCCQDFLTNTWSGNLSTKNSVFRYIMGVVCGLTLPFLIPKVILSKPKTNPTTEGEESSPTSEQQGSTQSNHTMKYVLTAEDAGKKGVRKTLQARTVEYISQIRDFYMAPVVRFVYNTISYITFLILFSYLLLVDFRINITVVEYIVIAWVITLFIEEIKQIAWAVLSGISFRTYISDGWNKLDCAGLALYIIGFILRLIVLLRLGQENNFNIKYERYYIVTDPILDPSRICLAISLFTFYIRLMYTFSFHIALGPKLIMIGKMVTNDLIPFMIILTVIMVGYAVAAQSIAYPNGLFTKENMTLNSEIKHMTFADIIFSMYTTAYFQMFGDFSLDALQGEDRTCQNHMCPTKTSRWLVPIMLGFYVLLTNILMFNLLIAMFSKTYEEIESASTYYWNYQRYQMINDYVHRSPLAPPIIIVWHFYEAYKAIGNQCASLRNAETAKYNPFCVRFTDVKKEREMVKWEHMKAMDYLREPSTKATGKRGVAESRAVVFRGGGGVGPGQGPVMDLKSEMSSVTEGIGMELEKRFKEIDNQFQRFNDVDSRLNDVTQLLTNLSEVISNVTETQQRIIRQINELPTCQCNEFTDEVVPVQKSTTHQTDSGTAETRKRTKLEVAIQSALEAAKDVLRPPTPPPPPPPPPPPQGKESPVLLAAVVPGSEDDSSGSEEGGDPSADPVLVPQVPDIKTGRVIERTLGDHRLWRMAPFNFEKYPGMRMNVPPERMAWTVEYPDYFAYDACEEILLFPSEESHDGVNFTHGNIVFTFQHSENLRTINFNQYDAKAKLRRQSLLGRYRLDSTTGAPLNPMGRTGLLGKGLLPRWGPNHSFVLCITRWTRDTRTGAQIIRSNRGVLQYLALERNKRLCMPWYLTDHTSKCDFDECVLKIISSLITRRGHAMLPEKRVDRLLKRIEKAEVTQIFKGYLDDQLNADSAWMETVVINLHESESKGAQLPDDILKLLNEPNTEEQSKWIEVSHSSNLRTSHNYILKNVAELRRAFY
Experimental: (§11) The Ca^2+ reporter assay was performed using a Fluorescence Imaging Plate Reader (FLIPR) system, as described in the Supporting Information. […]
as §3, §4
(§12) with DMSO as a negative control. […]
(§13) reader. […] The fluorescence
(§14) Untransfected HEK293 cells were used as a control.
(§15) 10% fetal bovine serum (FBS). […]
(§16) atmosphere containing 5% CO₂. Following incubation, the growth medium was removed and […]
buffer containing 2.5 mM probenecid in HBSS (with Ca²⁺ and Mg²⁺), 20 mM HEPES, 0.3% BSA (Sigma, A7030), and 0.03% L-ascorbic acid (Sigma). Cells were incubated for 40 minutes at 37 °C and subsequently for 20 minutes at room temperature. […]
prepared in assay buffer without dye and probenecid and dispensed into separate flat-bottom 384-well plates. Calcium flux measurements were performed at room temperature using a […]
(§17) instrument (Molecular Devices). Baseline fluorescence was recorded for 20 seconds, followed by the addition of 5 µL of each drug solution, after which fluorescence was measured continuously for 250 seconds. […]

Eg.TRPMPZQ = Eg.TRPMPZQ (Echinococcus granulosus, UniProt W6UVV9); assay: cell-based; settings: HEK293, Ca2+ reporter, mean ± standard deviation; for Emax: read-out: Bmax, Eg.TRPMPZQ activation
Eg.TRPMPZQ, sequence (W6UVV9 entry or part of it): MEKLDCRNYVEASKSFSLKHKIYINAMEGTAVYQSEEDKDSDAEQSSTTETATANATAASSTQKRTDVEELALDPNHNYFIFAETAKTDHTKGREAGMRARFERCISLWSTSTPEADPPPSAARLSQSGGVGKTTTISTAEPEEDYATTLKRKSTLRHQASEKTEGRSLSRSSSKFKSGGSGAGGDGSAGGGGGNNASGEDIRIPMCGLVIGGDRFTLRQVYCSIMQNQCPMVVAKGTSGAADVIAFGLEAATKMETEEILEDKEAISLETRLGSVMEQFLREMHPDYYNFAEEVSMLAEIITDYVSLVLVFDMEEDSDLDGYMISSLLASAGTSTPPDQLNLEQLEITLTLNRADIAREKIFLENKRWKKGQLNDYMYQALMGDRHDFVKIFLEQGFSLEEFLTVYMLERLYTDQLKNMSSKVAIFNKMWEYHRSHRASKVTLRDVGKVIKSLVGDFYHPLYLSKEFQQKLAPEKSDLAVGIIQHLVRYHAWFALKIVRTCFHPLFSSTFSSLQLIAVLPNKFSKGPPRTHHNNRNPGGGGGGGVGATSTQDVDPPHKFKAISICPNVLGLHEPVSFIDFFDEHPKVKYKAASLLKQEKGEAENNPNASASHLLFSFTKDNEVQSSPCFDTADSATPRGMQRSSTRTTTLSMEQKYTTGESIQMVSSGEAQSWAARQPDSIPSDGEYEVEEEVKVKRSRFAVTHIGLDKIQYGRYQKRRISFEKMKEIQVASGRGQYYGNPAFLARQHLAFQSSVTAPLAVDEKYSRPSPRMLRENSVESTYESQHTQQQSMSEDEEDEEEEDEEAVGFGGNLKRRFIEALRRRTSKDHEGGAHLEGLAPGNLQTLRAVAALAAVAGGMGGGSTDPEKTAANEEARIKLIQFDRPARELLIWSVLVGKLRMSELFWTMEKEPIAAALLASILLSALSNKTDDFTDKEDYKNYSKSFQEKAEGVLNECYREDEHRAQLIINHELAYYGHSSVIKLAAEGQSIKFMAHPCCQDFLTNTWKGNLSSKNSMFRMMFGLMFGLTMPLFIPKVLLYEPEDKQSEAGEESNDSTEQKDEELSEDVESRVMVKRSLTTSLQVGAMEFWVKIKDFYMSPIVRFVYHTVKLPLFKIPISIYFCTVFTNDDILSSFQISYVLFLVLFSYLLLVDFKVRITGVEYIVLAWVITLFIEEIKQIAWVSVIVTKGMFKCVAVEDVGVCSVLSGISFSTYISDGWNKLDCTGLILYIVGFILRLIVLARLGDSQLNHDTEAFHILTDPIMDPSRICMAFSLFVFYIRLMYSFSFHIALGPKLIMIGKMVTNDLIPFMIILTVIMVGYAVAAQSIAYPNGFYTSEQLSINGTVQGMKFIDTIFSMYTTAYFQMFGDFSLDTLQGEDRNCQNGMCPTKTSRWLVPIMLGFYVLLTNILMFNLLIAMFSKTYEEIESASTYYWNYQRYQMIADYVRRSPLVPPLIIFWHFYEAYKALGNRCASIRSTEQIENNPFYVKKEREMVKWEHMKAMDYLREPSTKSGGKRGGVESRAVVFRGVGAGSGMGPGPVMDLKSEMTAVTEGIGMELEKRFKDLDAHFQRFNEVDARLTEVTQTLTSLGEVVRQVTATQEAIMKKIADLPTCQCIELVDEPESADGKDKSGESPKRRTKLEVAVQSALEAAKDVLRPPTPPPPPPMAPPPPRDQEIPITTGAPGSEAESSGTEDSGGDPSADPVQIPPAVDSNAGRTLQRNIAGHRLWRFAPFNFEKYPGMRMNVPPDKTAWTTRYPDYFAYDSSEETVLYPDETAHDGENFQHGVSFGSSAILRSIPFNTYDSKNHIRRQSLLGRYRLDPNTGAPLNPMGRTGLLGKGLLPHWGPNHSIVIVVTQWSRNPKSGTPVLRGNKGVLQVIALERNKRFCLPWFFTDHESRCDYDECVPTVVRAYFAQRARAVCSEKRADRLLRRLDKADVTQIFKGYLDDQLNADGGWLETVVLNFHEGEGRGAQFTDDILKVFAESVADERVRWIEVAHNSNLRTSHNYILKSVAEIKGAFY

Fh.TRPMPZQ = assay: Ca2+ reporter (FLIPR) activation assay, Fh.TRPMPZQ in HEK293 cells; type: cell-based, Fasciola hepatica; settings: at the tested concentrations, data not shown
Experimental: (§18) Finally, selectivity for Sm.TRPMPZQ was assessed by profiling responses on the F. hepatica (Fh.TRPMPZQ) and E. granulosus (Eg.TRPMPZQ) TRPMPZQ orthologs, as well as the schistosome TRPM paralog Sm.TRPMMCLZ, a distinct TRPM channel activated by meclonazepam. Meclonazepam is an anthelmintic benzodiazepine known for its toxicity to juvenile schistosome worms.
as §11, §3, §4, §12, §13, §14, §15, §16
(§19) buffer containing 2.5 mM probenecid in HBSS (with Ca²⁺ and Mg²⁺), 20 mM HEPES, 0.3% BSA (Sigma, A7030), and 0.03% L-ascorbic acid (Sigma). Cells were incubated for 40 minutes at 37 °C and subsequently for 20 minutes at room temperature. A total of seven PZQ derivatives were tested, using racemic PZQ included as a positive control on each assay plate. Drug dilutions were prepared in assay buffer without dye and probenecid and dispensed into separate flat-bottom 384-well plates. Calcium flux measurements were performed at room temperature using a […]
as §17

Sm.TRPMMCLZ = assay: Ca2+ reporter (FLIPR) activation assay, Sm.TRPMMCLZ in HEK293 cells; type: cell-based, Schistosoma mansoni; settings: at the tested concentrations, data not shown
Experimental: as §18, §11, §3, §4, §12, §13, §14, §15, §16, §19, §17

juvenile schistosomes = assay: Microscopy analysis of juvenile morphology and motility (viability score 0-3); settings: 10 μM, 72 h; for number of juvenile worms with viability score 0 / number of juvenile worms with viability score 1 / number of juvenile worms with viability score 2 / number of juvenile worms with viability score 3: Table S1
S. mansoni schistosomula = assay: Roboworm high-content screening assay on schistosomula (motility and phenotype scores); type: cell-based, Schistosoma mansoni; settings: 25 μM, 72 h
Experimental: All PZQ derivatives were synthesized in the racemic form and evaluated as such. The compounds were initially screened at 10 μM against S. mansoni schistosomula using the Roboworm high-content screening assay , and were declared hits or nonhits based on their effect on parasites’ motility and phenotype scores after 72 h of incubation. As none of the compounds were considered hits at this concentration, we performed a titration from 6.25 to 50 μM (Figure S27).
DMSO was included as a negative control. Compounds were considered hits if both their motility and phenotype scores were lower than −0.35 and −0.15, respectively (region delimited by the dashed lines). In red, PZQ analogues selected for further analysis.
For the collection of schistosomula, B. glabrata snails infected with S. mansoni were shed for 2 h under light at 26 °C. Cercariae were collected, mechanically transformed into schistosomula as previously described.
DMSO (0.625%, v/v) was included as a negative control. Z′ values for the assay were calculated to be 0.542 for phenotype and 0.361 for motility. […]
(§20) Auranofin (AUR) was included at 10 µM as positive control. DMSO was included as a negative control. Compounds were considered hits if both their motility and phenotype scores were lower than -0.35 and -0.15, respectively (region delimited by the […]

Sm.TRPMPZQ = assay: Ca2+ reporter assay in antagonist mode (block of PZQ activation of Sm.TRPMPZQ); type: cell-based, Schistosoma mansoni; settings: preincubation 1 nM-100 μM for 10 min, data not shown
Experimental: The Ca^2+ reporter assay was performed using a Fluorescence Imaging Plate Reader (FLIPR) system, as described in the Supporting Information.
as §1, §2, §3, §4, §12, §13, §14, §15, §16, §19, §17
as §20, with “schistosomula after 72h of incubation using the Roboworm high-content screening assay. Auranofin” for “Auranofin”
(1 picture or pasted object on this page, not shown here)

[4] = Schistosoma mansoni, 24 h, male adult worms, 24 h, single experiment or geometric mean, read-out: Male worm motility inhibition (EC50)
[5] = Schistosoma mansoni, 48 h, male adult worms, 48 h, single experiment or geometric mean, read-out: Male worm motility inhibition (EC50)
[6] = Schistosoma mansoni, 72 h, male adult worms, 72 h, single experiment or geometric mean, read-out: Male worm motility inhibition (EC50)

In the case of `Nc1ccc2c(c1)C1CN(C(=O)C3CCCCC3)CC(=O)N1CC2` (stereo not shown) [Compound 3, 9-NH2–PZQ], the “parasite metabolic activity compared to the DMSO control group (XTT)” value [1] is reported as “significantly decreased”, the EC50 ([2]; Schistosoma mansoni, 0 h, female adult worms, 0 h (immediately after addition), single experiment or geometric mean, read-out: Female worm motility inhibition (EC50)) is reported as 8.36 µM and the EC50 ([2]; Schistosoma mansoni, 24 h, female adult worms, 24 h, single experiment or geometric mean, read-out: Female worm motility inhibition (EC50)) is reported as 9.6 µM. The EC50 ([2]; Schistosoma mansoni, 24 h, female, 24 h, individual experiments, read-out: Female worm motility inhibition (EC50), values of independent experiments) was 9.04 µM, the EC50 [2, 4] was 5.4 µM and the EC50 ([2]; Schistosoma mansoni, 48 h, female adult worms, 48 h, single experiment or geometric mean, read-out: Female worm motility inhibition (EC50)) was 9.9 µM. It also gave an EC50 ([2]; Schistosoma mansoni, 48 h, female, 48 h, individual experiments, read-out: Female worm motility inhibition (EC50), values of independent experiments) of 9.36 µM, an EC50 [2, 5] of 4.5 µM and an EC50 ([2]; Schistosoma mansoni, 48 h, male, 48 h, individual experiments, read-out: Male worm motility inhibition (EC50), values of independent experiments) of 3.94 µM. It also gave an EC50 ([2]; Schistosoma mansoni, 72 h, female adult worms, 72 h, single experiment or geometric mean, read-out: Female worm motility inhibition (EC50)) of 11.2 µM, an EC50 ([2]; Schistosoma mansoni, 72 h, female, 72 h, individual experiments, read-out: Female worm motility inhibition (EC50), values of independent experiments) of 8.77 µM and an EC50 [2, 6] of 3.5 µM. The EC50 ([2]; Schistosoma mansoni, 72 h, male, 72 h, individual experiments, read-out: Male worm motility inhibition (EC50), values of independent experiments) was 3.8 µM, the EC50 ([2]; female adult worms, 72 h, single experiment or geometric mean, read-out: Female worm motility inhibition (EC50)) was 11 µM and the EC50 ([2]; female, 24 h, individual experiments, read-out: Female worm motility inhibition (EC50), values of independent experiments) was 10.2 µM. For the same molecule, the EC50 ([2]; female, 48 h, individual experiments, read-out: Female worm motility inhibition (EC50), values of independent experiments) was 10.5 µM, the EC50 ([2]; female, 72 h, individual experiments, read-out: Female worm motility inhibition (EC50), values of independent experiments) was 14.3 µM and the EC50 ([2]; male, 24 h, individual experiments, read-out: Male worm motility inhibition (EC50), values of independent experiments) was 8.1 µM and 5.61 µM and 3.44 µM. The EC50 ([2]; male, 48 h, individual experiments, read-out: Male worm motility inhibition (EC50), values of independent experiments) was 4.56 µM, the EC50 ([2]; male, 72 h, individual experiments, read-out: Male worm motility inhibition (EC50), values of independent experiments) was 3.29 µM and 3.58 µM and the CC50 at 48 h (in vitro) was roughly 300 µM. For the same molecule, the “Selectivity Index (CC50/EC50), Female” value ([3]; HepG2 CC50 / female worm motility EC50, 48 h) was greater than 30, the “Selectivity Index (CC50/EC50), Male” value [3] was greater than 67 and the CC50 ([3]; human, 48 h) was greater than 300 µM. It also gave an EC50 (Sm.TRPMPZQ (wild-type); 0.001 to 100 μM) of 7.09 ± 0.18 µM, an Emax (Sm.TRPMPZQ (wild-type); read-out: Bmax, wild-type Sm.TRPMPZQ activation) of 90 ± 1.31% and an Emax (Eg.TRPMPZQ) of 138 ± 13.2%. For the same molecule, the “activation of Fh.TRPMPZQ” value (Fh.TRPMPZQ) was “did not activate”, the “activation of Sm.TRPMMCLZ” value (Sm.TRPMMCLZ) was “did not activate” and the “number of juvenile worms with viability score 0” value (juvenile schistosomes) was 38. The “number of juvenile worms with viability score 1” value (juvenile schistosomes) was 2, the “number of juvenile worms with viability score 2” value (juvenile schistosomes) was 14 and the “number of juvenile worms with viability score 3” value (juvenile schistosomes) was 38.

With `O=C(C1CCCCC1)N1CC(=O)N2CCc3ccc(-n4cc(COc5ccccc5)nn4)cc3C2C1` (stereo not shown) [Compound 5c] the “hit classification (motility and phenotype scores)” value (S. mansoni schistosomula) was “borderline”, the “parasite metabolic activity compared to the DMSO control group (XTT)” value [1] was “no statistically significant differences” and the EC50 ([2]; Schistosoma mansoni, 0 h, male adult worms, 0 h (immediately after addition), single experiment or geometric mean, read-out: Male worm motility inhibition (EC50)) was greater than 100 µM. The EC50 [2, 4] was greater than 100 µM, the EC50 [2, 5] was greater than 100 µM and the EC50 [2, 6] was greater than 100 µM. For the same molecule, the CC50 at 48 h (in vitro) was 88.1 µM, the “Selectivity Index (CC50/EC50), Male” value [3] was less than 0.9 and the “Selectivity Index (SI), sex not specified” value ([3]; HepG2 vs adult worms, 48 h) was less than 1. The “Bmax, wild-type Sm.TRPMPZQ activation” value (Sm.TRPMPZQ (wild-type)) was “No activity”, the “EC50 for wild-type Sm.TRPMPZQ activation” value (Sm.TRPMPZQ (wild-type); 0.001 to 100 μM) was “failed to activate; also recorded: No activity” and the “EC50 for Eg.TRPMPZQ activation” value (Eg.TRPMPZQ) was “No signal”. The Emax (Eg.TRPMPZQ) was 7.63 ± 0.72%, the “block of PZQ activation of Sm.TRPMPZQ (antagonist mode)” value (Sm.TRPMPZQ) was “failed to impact subsequent responses to PZQ” and the “activity against juvenile schistosomes (grouped score analysis)” value (juvenile schistosomes) was “lacks activity”. The “number of juvenile worms with viability score 0” value (juvenile schistosomes) was 19, the “number of juvenile worms with viability score 1” value (juvenile schistosomes) was 1 and the “number of juvenile worms with viability score 2” value (juvenile schistosomes) was 4. For the same molecule, the “number of juvenile worms with viability score 3” value (juvenile schistosomes) was 72.
